Six molecules from patent US20180072675A1, “ANTIMICROBIAL PYRIDINOHYDRAZIDE AND HYDRAZOMETHYLPYRIDINE-BASED AGENTS” (Board of Supervisors of Louisiana State University and …, priority 2015, published 2018) can be followed below.

Experiment [1] concerns C. albicans clinical isolate 1 (TW1). The experiment is described as follows: MIC80 fungal growth inhibition, clinical isolate TW1. As to conditions: for MIC80: Candida albicans, read-out: MIC80 TW1. The class given is cell-based, Candida albicans. Put shortly: (§1)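 Broth microdilution per CLSI M27-A3 in HEPES-buffered RPMI-1640, against C. albicans ATCC 10231, C. glabrata ATCC 48435 and azole-susceptible (TW1) and azole-resistant (TW17) clinical isolates from one AIDS patient. MIC80 read visually as lowest concentration inhibiting >80% growth versus 1% DMSO controls.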

Experiment [2] relates to Candida strain TW17. Briefly: Time-kill assay. Type of experiment: cell-based, Candida albicans. The note with it: for Cidal vs Static: four times the MIC for TW17, 48 h; for colonies observed in time-kill assay: after 24 h. How it is done:
FIG. 9 illustrates time-kill assays, for representative analogs that were active against the azole-resistant TW17, to determine the cidal or static nature of the analog tested. 100 μl of each sample was spread onto YM agar plates with a sterile bent spreading rod. Plates were incubated at 35° C. overnight and colonies were then counted on each plate.
One of the objectives of this study was to determine the cidal or static nature of the analogs that were active against such as TW17, the azole-resistant clinical isolate. Azoles affect Candida spp. by inhibiting ergosterol biosynthesis, and ultimately prevent their reproduction. This effect has led to the classification of azoles as fungistats. Determining the fungistatic or fungicidal nature of the synthesized compounds of the present disclosure allows a comparison to azoles, in addition to improving the understanding of how the structural motifs might lend toward an alternate mechanism of action. Therefore, time-kill assays were performed using the representative analogs that were active against the azole-resistant TW17 at concentrations at or below 8 μg/mL.
Solid drugs were dissolved in DMSO to a concentration of 10 mg/ml. This stock solution was then further diluted in water to the desired experimental concentration, determined to be four times that of the MIC for the Candida strain TW17 (as reported in the Tables).
Individual colonies of TW17 were suspended in 5 ml of sterile water and adjusted to achieve a McFarland reading between 0.08 and 0.12. The inoculum was then further diluted in sterile water at a ratio of 1:100. Three […] tissue culture tubes were prepared by combining 2.5 ml of above diluted inoculum, 21.7 ml of HEPES buffered RPMI-1640 media, and 800 μl of experimental drug dilution. A “Growth Control” tube was prepared by combining 2.5 ml of inoculum, 21.7 HEPES buffered RPMI-1640 media, and 800 μl of water-DMSO solution equal to the DMSO concentration of the experimental drug dilution. A “Sterile Control” tube was prepared by combining 24.2 ml of HEPES-buffered RPMI-1640 media and 800 μl of water-DMSO solution as in the “Growth Control”. All tubes were incubated for 48 hours at 35° C., 50 rpm. 500 μl samples were taken from the tubes at time points of predetermined intervals during this incubation.
Time points for the “Kill-Curve” and “Growth Control” tubes were taken at 0, 1, 2, 4, 6, 8, 24, and 48 h after the start of incubation. Time points for “Sterile Control” were taken at 0 and 48 hours. Each time point sample was serially diluted 1:10 in sterile 0.9% NaCl solution up to 5 times. 100 μl of each sample was spread onto YM agar plates with a sterile bent spreading rod. Plates were incubated at 35° C. overnight and colonies were then counted on each plate. Colonies on plates from diluted time points were used to estimate uncountable undiluted samples. The number of colonies in undiluted samples was estimated to be 10^n times greater than the diluted sample, where n was the number of dilutions made.

The test system of experiment [3] is C. albicans clinical isolate 17 (TW17). Briefly: MIC80 fungal growth inhibition, clinical isolate TW17. Type of experiment: cell-based, Candida albicans. As to conditions: for MIC80: Candida albicans, read-out: MIC80 TW17. The procedure, abridged: as §1
Experiment [4] has as its system Candida albicans (ATCC Accession No. 10231). Briefly: MIC80 fungal growth inhibition, C. albicans ATCC 10231. Type of experiment: cell-based. As to conditions: for MIC80: Candida albicans. The procedure, abridged: as §1
The mark [5] stands for this setting: Azole-susceptible, >80% growth inhibition, visual scoring.
Setting [6] is: Azole-resistant, >80% growth inhibition, visual scoring.
Setting [7] is: ATCC10231, Azole-susceptible, >80% growth inhibition, visual scoring, read-out: MIC80 C. albicans ATCC No. 10231.

In brackets after ≈: the same amount, converted by molar mass. Entries after “also recorded” stand apart in the source; their conditions may differ. Read-outs that look alike come from different tables or passages of the source.

In the case of `O=C(N/N=C/c1cc(Br)ccc1O)c1ccc[n+]([O-])c1` [AR27], the MIC80 in experiment [1] (setting [5]) turned out to be 8 µg/mL (≈ 23.8 µM); in experiment [3] (setting [6]), 8 µg/mL (≈ 23.8 µM); in experiment [4] (setting [7]), 16 µg/mL (≈ 47.6 µM). Besides, the “Cidal vs Static” value in experiment [2] is “fungistatic; also recorded: Static”.
Regarding `O=C(NN=Cc1cc([N+](=O)[O-])ccc1O)c1cccnc1` [AR12], the “MIC80 TW1” value in experiment [1] (setting [5]) amounted to 8 µg/mL (≈ 27.9 µM). In addition, the “Cidal vs Static” value in experiment [2] is reported as “Static”. Further, the “MIC80 TW17” value in experiment [3] (setting [6]) amounted to 8 µg/mL (≈ 27.9 µM). Also, the “MIC80 C. albicans ATCC No. 10231” value in experiment [4] (setting [5]) was 4 µg/mL (≈ 14 µM).
Take `C(=N\Nc1ccccc1)/c1ccncc1` [AR48]: the MIC80 in experiment [1] was 16 µg/mL (≈ 81.1 µM); in experiment [3] it was 8 µg/mL (≈ 40.6 µM); in experiment [4] (ATCC10231, read-out: MIC80 C. albicans ATCC No. 10231), 31 µg/mL (≈ 157 µM). In addition, in experiment [2], the “colonies observed in time-kill assay” value is “no observed colonies”. Also, in experiment [2], the “Cidal vs Static” value is “fungicidal; also recorded: Cidal”.
Regarding `C(=N\Nc1ccccc1)/c1cccnc1` [AR44], the MIC80 in experiment [1] (setting [5]) stood at 16 µg/mL (≈ 81.1 µM); in experiment [3] (setting [6]), 8 µg/mL (≈ 40.6 µM); in experiment [4] (setting [7]) it was 16 µg/mL (≈ 81.1 µM). Further, the “colonies observed in time-kill assay” value in experiment [2] is “no observed colonies”. Further, in experiment [2], the “Cidal vs Static” value is reported as “fungicidal; also recorded: Cidal”.
Consider `O=C(NN=Cc1cc([N+](=O)[O-])ccc1O)c1ccncc1` [AR18], for which the “MIC80 TW1” value in experiment [1] (setting [5]) is 8 µg/mL (≈ 27.9 µM). In addition, in experiment [2], the “Cidal vs Static” value is listed as “Static”. The “MIC80 TW17” value in experiment [3] (setting [6]) was determined as 8 µg/mL (≈ 27.9 µM). For the same molecule, the “MIC80 C. albicans ATCC No. 10231” value in experiment [4] (setting [5]) was 4 µg/mL (≈ 14 µM).
`Cc1ccc(O)c(/C=N/NC(=O)c2ccccn2)c1` [AR2, (E)-N′-(2-Hydroxy-5-methylbenzylidene)picolinohydrazide]: the values for the MIC80 in experiment [1] (setting [5]), in experiment [3] (setting [6]) and in experiment [4] (setting [7]) were 4 µg/mL (≈ 15.7 µM), 8 µg/mL (≈ 31.3 µM) and 2 µg/mL (≈ 7.83 µM), respectively. Further, in experiment [2], the “Cidal vs Static” value was “Static”.
